Data published in patent US9375000B2, “Pesticidal arylpyrrolidines” (Bayer Intellectual Property GmbH, priority 2011, dated 2016).

How the values were obtained:
Assay type in all cases: in vivo
[1] = test system: Larvae of Spodoptera litura; assay: Larvae of Spodoptera litura, method using artificial feeds; settings: artificial feed, after 7 days; for pest or weed control at 20 ppm: Spodoptera litura, 168 h, read-out: insecticidal activity (pesticidal ratio)
Outline: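 Compound formulated in dimethylformamide with polyoxyethylene alkyl phenyl ether emulsifier, water-diluted and poured onto artificial diet. Five 3rd-instar Spodoptera litura larvae per cup, held at 25° C and 50-60% humidity. Mortality after 7 days expressed as pesticidal ratio.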

[2] = test system: Cucurbit Leaf Beetle (Aulacophora femoralis); assay: Cucurbit leaf beetle (Aulacophora femoralis) cucumber leaf dip test; settings: after 7 days; for pest or weed control at 20 ppm: Aulacophora, foliar, 168 h, read-out: insecticidal activity
Outline: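 Cucumber leaves dipped in compound formulated with DMF and polyoxyethylene alkyl phenyl ether, diluted in water, with ammonium salt or ammonium salt plus penetration enhancer at 1000 ppm added if necessary; dried leaves placed on sterilized soil with five second-instar larvae. Kept at 25° C; larval mortality counted after 7 days.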

[3] = test system: Two-Spotted Spider Mite (Tetranychus urticae); assay: Two-spotted spider mite (Tetranychus urticae) spray test on kidney bean; settings: after 7 days; for pest or weed control at 20 ppm: Tetranychus urticae, 168 h, read-out: acaricidal activity
Outline: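 Kidney bean plants at the two-leaf stage carried 50-100 adult mites and were sprayed one day later with compound in DMF/polyoxyethylene alkyl phenyl ether diluted in water. Ammonium salt and penetration enhancer at 1000 ppm were added if needed. Acaricidal activity (% mites killed) was scored after 7 days in a greenhouse.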

[4] = active compound concentration 20 ppm
[5] = active compound concentration 4 ppm

O=C(NCc1ccc(N2CCC(c3cc(Cl)c(Cl)c(Cl)c3)(C(F)(F)F)C2O)nc1Br)C1CC1 (stereo not shown) [A3-115]
100%: insecticidal activity (pesticidal ratio) [1, 4] | insecticidal activity [2, 4] | acaricidal activity [3, 4]

CCC(=O)NCc1cnc(N2CCC(c3cc(Cl)c(Cl)c(Cl)c3)(C(F)(F)F)C2O)nc1C(F)F (stereo not shown) [A4-216]
100%: insecticidal activity (pesticidal ratio) [1, 5] | insecticidal activity [2, 4] | acaricidal activity [3, 5]

CCC(=O)NCc1ccc(N2CCC(c3ccc(F)c(C(F)(F)F)c3)(C(F)(F)F)C2O)cc1C(F)(F)F (racemic) [A1-305]
100%: insecticidal activity (pesticidal ratio) [1, 4] | insecticidal activity [2, 4] | acaricidal activity [3, 4]

O=C(CC(F)(F)F)NCc1cnc(N2CCC(c3cc(Cl)c(Cl)c(Cl)c3)(C(F)(F)F)C2O)nc1C(F)(F)F (stereo not shown) [A4-18]
100%: insecticidal activity (pesticidal ratio) [1, 4] | insecticidal activity [2, 4] | acaricidal activity [3, 4]

CCC(=O)NCc1ccc(N2CCC(c3cccc(C(F)(F)F)c3)(C(F)(F)F)C2O)nc1C(F)(F)F (racemic) [A3-222]
100%: insecticidal activity (pesticidal ratio) [1, 4] | insecticidal activity [2, 4] | acaricidal activity [3, 4]

CS(=O)(=O)CC(=O)NCc1ccc(N2CCC(c3cc(Cl)cc(C(F)(F)F)c3)(C(F)(F)F)C2O)cc1C(F)(F)F (stereo not shown) [A1-347]
100%: insecticidal activity (pesticidal ratio) [1, 4] | insecticidal activity [2, 4] | acaricidal activity [3, 4]

CCC(=O)NCc1ccc(N2CCC(c3cc(C(F)(F)F)cc(C(F)(F)F)c3)(C(F)(F)F)C2O)cc1Cl (stereo not shown) [A1-24]
100%: insecticidal activity (pesticidal ratio) [1, 4] | insecticidal activity [2, 4] | acaricidal activity [3, 4]

O=C(NCc1ccc(N2CCC(c3cc(C(F)(F)F)cc(C(F)(F)F)c3)(C(F)(F)F)C2O)nc1Br)C1CC1 (stereo not shown) [A3-159]
100%: insecticidal activity (pesticidal ratio) [1, 4] | insecticidal activity [2, 4] | acaricidal activity [3, 4]

CCC(=O)NCc1cc(F)c(N2CCC(c3cc(Cl)c(Cl)c(Cl)c3)(C(F)(F)F)C2O)cc1F (stereo not shown) [A1-454]
100%: insecticidal activity (pesticidal ratio) [1, 4] | insecticidal activity [2, 4] | acaricidal activity [3, 4]

O=C(NCc1ccc(N2CCC(c3cc(Cl)cc(Cl)c3)(C(F)(F)F)C2O)nc1C(F)(F)F)C1CC1 (stereo not shown) [A3-5]
100%: insecticidal activity (pesticidal ratio) [1, 4] | insecticidal activity [2, 4] | acaricidal activity [3, 4]

O=C(NCc1ccc(N2CCC(c3cc(Cl)cc(Cl)c3)(C(F)(F)F)C2O)cc1C(F)(F)F)C1CCC1 (stereo not shown) [A1-361]
100%: insecticidal activity (pesticidal ratio) [1, 4] | insecticidal activity [2, 4] | acaricidal activity [3, 4]

CS(=O)(=O)CC(=O)NCc1cnc(N2CCC(c3cc(Cl)c(Cl)c(Cl)c3)(C(F)(F)F)C2O)nc1C(F)(F)F (stereo not shown) [A4-22]
100%: insecticidal activity (pesticidal ratio) [1, 4] | insecticidal activity [2, 4] | acaricidal activity [3, 4]

O=C(CC(F)(F)F)NCc1ccc(N2CCC(c3cc(Cl)c(Cl)c(Cl)c3)(C(F)(F)F)C2O)nc1Br (stereo not shown) [A3-117]
100%: insecticidal activity (pesticidal ratio) [1, 4] | insecticidal activity [2, 4] | acaricidal activity [3, 4]

CC(=O)NCc1ccc(N2CCC(c3cc(C(F)(F)F)cc(C(F)(F)F)c3)(C(F)(F)F)C2O)nc1C(F)(F)F (stereo not shown) [A3-23]
100%: insecticidal activity (pesticidal ratio) [1, 4] | insecticidal activity [2, 4] | acaricidal activity [3, 4]

COCCC(=O)NCc1ccc(N2CCC(c3cc(C(F)(F)F)cc(C(F)(F)F)c3)(C(F)(F)F)C2O)cc1Cl (stereo not shown) [A1-30]
100%: insecticidal activity (pesticidal ratio) [1, 4] | insecticidal activity [2, 4] | acaricidal activity [3, 4]

CCC(=O)NCc1ccc(N2CCC(c3cc(Cl)cc(C(F)(F)F)c3)(C(F)(F)F)C2O)cc1C(F)(F)F (stereo not shown) [A1-338]
100%: insecticidal activity (pesticidal ratio) [1, 4] | insecticidal activity [2, 4] | acaricidal activity [3, 4]

O=C(NCc1ccc(N2CCC(c3cc(Cl)c(Cl)c(Cl)c3)(C(F)(F)F)C2O)cc1Br)C1CC1 (mixture of isomers) [A1-165]
100%: insecticidal activity (pesticidal ratio) [1, 4] | insecticidal activity [2, 4] | acaricidal activity [3, 4]

CC(=O)NCc1ccc(N2CCC(c3cc(Cl)c(Cl)c(Cl)c3)(C(F)(F)F)C2O)cc1Br (mixture of isomers) [A1-161]
100%: insecticidal activity (pesticidal ratio) [1, 4] | insecticidal activity [2, 4] | acaricidal activity [3, 4]

O=C(CC1CC1)NCc1ccc(N2CCC(c3cc(C(F)(F)F)cc(C(F)(F)F)c3)(C(F)(F)F)C2O)nc1C(F)(F)F (stereo not shown) [A3-28]
100%: insecticidal activity (pesticidal ratio) [1, 4] | insecticidal activity [2, 4] | acaricidal activity [3, 4]

Cc1cc(N2CCC(c3cc(Cl)c(Cl)c(Cl)c3)(C(F)(F)F)C2O)ccc1CNC(=O)C1CC1 (mixture of isomers) [A1-132]
100%: insecticidal activity (pesticidal ratio) [1, 4] | insecticidal activity [2, 4] | acaricidal activity [3, 4]

O=C(NCc1cnc(N2CCC(c3cc(Cl)c(Cl)c(Cl)c3)(C(F)(F)F)C2O)nc1C(F)(F)F)C1CC1 (stereo not shown) [A4-16, N-({2-[2-hydroxy-3-(3,4,5-trichlorophenyl)-3-(trifluoromethyl)-pyrrolidin-1-yl]-4-(trifluoromethyl)pyrimidin-5-yl}methyl)cyclopropanecarboxamide]
100%: pest or weed control at 20 ppm [1, 4] | pest or weed control at 20 ppm [2, 4] | pest or weed control at 20 ppm [3, 4]

CS(=O)(=O)CC(=O)NCc1ccc(N2CCC(c3cc(C(F)(F)F)cc(C(F)(F)F)c3)(C(F)(F)F)C2O)nc1C(F)(F)F (stereo not shown) [A3-33]
100%: insecticidal activity (pesticidal ratio) [1, 4] | insecticidal activity [2, 4] | acaricidal activity [3, 4]

CCC(=O)NCc1ccc(N2CCC(c3cc(Cl)c(F)c(Cl)c3F)(C(F)(F)F)C2O)cc1Br (stereo not shown) [A1-430]
100%: insecticidal activity (pesticidal ratio) [1, 5] | insecticidal activity [2, 5] | acaricidal activity [3, 4]

CSCC(=O)NCc1cnc(N2CCC(c3cc(C(F)(F)F)cc(C(F)(F)F)c3)(C(F)(F)F)C2O)nc1C(F)(F)F (stereo not shown) [A4-31]
100%: insecticidal activity (pesticidal ratio) [1, 4] | insecticidal activity [2, 4] | acaricidal activity [3, 4]

O=C(NCc1ccc(N2CCC(c3cccc(C(F)(F)F)c3)(C(F)(F)F)C2O)nc1C(F)(F)F)C1CC1 (racemic) [A3-225]
100%: insecticidal activity (pesticidal ratio) [1, 4] | insecticidal activity [2, 4] | acaricidal activity [3, 4]

CCC(=O)NCc1ccc(N2CCC(c3cc(Cl)c(Cl)c(Cl)c3)(C(F)(F)F)C2O)cc1F (mixture of isomers) [A1-151]
100%: insecticidal activity (pesticidal ratio) [1, 4] | insecticidal activity [2, 4] | acaricidal activity [3, 4]

O=C(CC(F)(F)F)NCc1cnc(N2CCC(c3cc(C(F)(F)F)cc(C(F)(F)F)c3)(C(F)(F)F)C2O)nc1C(F)(F)F (stereo not shown) [A4-29]
100%: insecticidal activity (pesticidal ratio) [1, 4] | insecticidal activity [2, 4] | acaricidal activity [3, 4]

CCC(=O)NCc1ccc(N2CCC(c3cc(Cl)c(F)c(Cl)c3)(C(F)(F)F)C2O)nc1C(F)(F)F (mixture of isomers) [A3-200]
100%: insecticidal activity (pesticidal ratio) [1, 4] | insecticidal activity [2, 4] | acaricidal activity [3, 4]

O=C(CC(F)(F)F)NCc1ccc(N2CCC(c3cccc(C(F)(F)F)c3)(C(F)(F)F)C2O)nc1C(F)(F)F (racemic) [A3-227]
100%: insecticidal activity (pesticidal ratio) [1, 4] | insecticidal activity [2, 4] | acaricidal activity [3, 4]

C[S+]([O-])CC(=O)NCc1cnc(N2CCC(c3cc(C(F)(F)F)cc(C(F)(F)F)c3)(C(F)(F)F)C2O)nc1C(F)(F)F (stereo not shown) [A4-32]
100%: insecticidal activity (pesticidal ratio) [1, 4] | insecticidal activity [2, 4] | acaricidal activity [3, 4]

CC(=O)NCc1ccc(N2CCC(c3cc(Cl)c(F)c(Cl)c3F)(C(F)(F)F)C2O)cc1Br (stereo not shown) [A1-429]
100%: insecticidal activity (pesticidal ratio) [1, 5] | insecticidal activity [2, 5] | acaricidal activity [3, 4]

Cc1nc(N2CCC(c3cc(Cl)c(Cl)c(Cl)c3)(C(F)(F)F)C2O)ccc1CNC(=O)C1CC1 (stereo not shown) [A3-82]
100%: insecticidal activity (pesticidal ratio) [1, 4] | insecticidal activity [2, 4] | acaricidal activity [3, 4]

CCC(=O)NCc1ccc(N2CCC(c3cc(C(F)(F)F)cc(C(F)(F)F)c3)(C(F)(F)F)C2O)nc1C (stereo not shown) [A3-123]
100%: insecticidal activity (pesticidal ratio) [1, 4] | insecticidal activity [2, 4] | acaricidal activity [3, 4]

O=C(NCc1ccc(N2CCC(c3cc(Cl)c(Cl)c(Cl)c3)(C(F)(F)F)C2O)cc1C(F)(F)F)C1CC1 (stereo not shown) [A1-49]
100%: insecticidal activity (pesticidal ratio) [1, 4] | insecticidal activity [2, 4] | acaricidal activity [3, 4]

CCC(=O)NCc1ccc(N2CCC(c3cc(Cl)c(F)c(Cl)c3F)(C(F)(F)F)C2O)cc1C(F)(F)F (stereo not shown) [A1-283, N-{4-[3-(3,5-dichloro-2,4-difluorophenyl)-2-hydroxy-3-(trifluoromethyl)pyrrolidin-1-yl]-2-(trifluoromethyl)benzyl}propanamide]
100%: pest or weed control at 20 ppm [1, 4] | pest or weed control at 20 ppm [2, 4] | pest or weed control at 20 ppm [3, 4]

CC(=O)NCc1ccc(N2CCC(c3cc(C(F)(F)F)cc(C(F)(F)F)c3)(C(F)(F)F)C2O)cc1F (mixture of isomers) [A1-205]
100%: insecticidal activity (pesticidal ratio) [1, 4] | insecticidal activity [2, 4] | acaricidal activity [3, 4]

CCC(=O)NCc1ccc(N2CCC(c3cc(F)c(F)c(F)c3)(C(F)(F)F)C2O)cc1C(F)(F)F (stereo not shown) [A1-261]
100%: insecticidal activity (pesticidal ratio) [1, 5] | insecticidal activity (pesticidal ratio) [1, 4] | insecticidal activity [2, 4] | acaricidal activity [3, 4]
